Activity calls are given as the source filed them. The calls are words filed in the database; no cut-off is given here.

One experiment relates to Ileum. Put plainly: Antispasmodic activity in guinea pig ileum assessed as inhibition of histamine-induced tissue contraction at 10^-8 to 10^-5 M after 30 mins. Type of experiment: functional, Cavia porcellus.
Settings: not given
On to `C[C@H](CC[C@]1(O)O[C@H]2C[C@H]3[C@@H]4CC=C5C[C@@H](O)C[C@@H](O[C@@H]6O[C@H](CO)[C@H](O)[C@H](O)[C@H]6O)[C@]5(C)[C@H]4CC[C@]3(C)[C@H]2[C@@H]1C)CO[C@@H]1O[C@H](C)[C@@H](O)[C@H](O)[C@@H]1O` [TROPEOSIDE A2], for which the “inhibition (INH)” value is reported as 50%.
Same read-out and setting: under `C[C@H](CC[C@]1(O)O[C@H]2C[C@H]3[C@@H]4CC=C5C[C@@H](O)C[C@@H](O[C@@H]6OC[C@@H](O)[C@H](O)[C@H]6O)[C@]5(C)[C@H]4CC[C@]3(C)[C@H]2[C@@H]1C)CO[C@@H]1O[C@H](C)[C@@H](O)[C@H](O)[C@@H]1O` [TROPEOSIDE B2] stands 50%; under `C[C@H](CC[C@@]1(O)O[C@H]2C[C@H]3[C@@H]4CC=C5C[C@@H](O)C[C@@H](O[C@@H]6O[C@H](CO)[C@H](O)[C@H](O)[C@H]6O)[C@]5(C)[C@H]4CC[C@]3(C)[C@H]2[C@@H]1C)CO[C@@H]1O[C@H](C)[C@@H](O)[C@H](O)[C@@H]1O` [TROPEOSIDE A1], 50%.
Same read-out and setting: the result for `C[C@H](CC[C@@]1(O)O[C@H]2C[C@H]3[C@@H]4CC=C5C[C@@H](O)C[C@@H](O[C@@H]6OC[C@@H](O)[C@H](O)[C@H]6O)[C@]5(C)[C@H]4CC[C@]3(C)[C@H]2[C@@H]1C)CO[C@@H]1O[C@H](C)[C@@H](O)[C@H](O)[C@@H]1O` [TROPEOSIDE B1] reads 50%.
Turning to `C[C@H]1[C@H]2[C@H](C[C@H]3[C@@H]4C[C@@H](O)[C@H]5C[C@@H](O[C@@H]6O[C@H](CO)[C@H](O[C@@H]7O[C@H](CO)[C@@H](O)[C@H](O)[C@H]7O)[C@H](O)[C@H]6O)[C@H](O)C[C@]5(C)[C@H]4CC[C@]23C)O[C@]12CC[C@@H](CO)CO2` [ATROVIOLACEOSIDE], the “inhibition (INH)” value came out at 0%.

The experiment is the same for the next values; noted with them: Cavia porcellus.
As for `C[C@H]1[C@H]2[C@H](C[C@H]3[C@@H]4C[C@@H](O)[C@H]5C[C@@H](O)[C@H](O)C[C@]5(C)[C@H]4CC[C@]23C)O[C@]12CCC(CO)CO2` (single isomer, unassigned), the result was inactive.
